For the assay, the target named is T1, wild-type human ALK cytoplasmic domain (amino acids 1058-1620) (Homo sapiens, UniProt Q9UM73).
T1 construct: The cytoplasmic domain (amino acids 1058-1620) of wild-type human ALK; GST (N); made in house; host or cells: SF9 insect cells
T1 sequence (Q9UM73 1058-1620): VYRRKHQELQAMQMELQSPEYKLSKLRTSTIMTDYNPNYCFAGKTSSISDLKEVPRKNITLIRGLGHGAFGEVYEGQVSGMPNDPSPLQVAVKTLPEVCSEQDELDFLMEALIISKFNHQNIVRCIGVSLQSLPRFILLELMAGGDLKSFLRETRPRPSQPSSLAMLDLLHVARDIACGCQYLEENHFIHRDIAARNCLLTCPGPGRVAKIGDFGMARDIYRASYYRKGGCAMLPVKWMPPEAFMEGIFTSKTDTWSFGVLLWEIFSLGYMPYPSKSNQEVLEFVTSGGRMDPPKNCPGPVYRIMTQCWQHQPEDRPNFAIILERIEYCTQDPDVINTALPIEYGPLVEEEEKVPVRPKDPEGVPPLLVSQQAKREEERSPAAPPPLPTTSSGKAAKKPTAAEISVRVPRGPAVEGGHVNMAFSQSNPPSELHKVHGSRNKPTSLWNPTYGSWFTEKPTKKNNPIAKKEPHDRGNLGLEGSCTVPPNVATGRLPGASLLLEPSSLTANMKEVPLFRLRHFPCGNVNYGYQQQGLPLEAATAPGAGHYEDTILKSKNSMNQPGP
In words: ALK Inhibition in Enzyme Assay (Lance TR-FRET). In kind it is biochemical. Particulars: 2 nM enzyme, ATP at 40 μM (Km apparent), 90 minutes, mean of three replicates; read-out: ALK IC50. Put shortly: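 Purified enzyme phosphorylated a biotinylated peptide substrate for 90 minutes at room temperature. Reactions were stopped with 20 mM EDTA in 50 mM Tris (pH 7.5), 100 mM NaCl, 0.05% BSA, 0.1% Tween-20. Phosphopeptide was detected by TR-FRET with SA-APC and Eu-W1024 anti-phosphotyrosine antibody PT66, excitation 320 nm.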
On the technique in general: In TR-FRET formats the signal depends on donor and acceptor labels being close together.
Usually IC50 stands for the concentration at which inhibition is half-maximal. As to `COc1cc(Nc2nccc(N3CCC[C@H](C(=O)NCc4ccc(C)cc4)C3)n2)cc(C(F)(F)F)c1` [Example 170, (3S)-1-(2-((3-methoxy-5-(trifluoromethyl)phenyl)amino)-4-pyrimidinyl)-N-(4-methylbenzyl)-3-piperidinecarboxamide], the IC50 is 100 to 1000 nM. Turning to `Cc1ccc(CNC(=O)[C@H]2CCCN(c3ccnc(Nc4cccc(C(C)C)c4)n3)C2)cc1` [Example 171, (3S)-N-(4-methylbenzyl)-1-(2-((3-(1-methylethyl)phenyl)amino)-4-pyrimidinyl)-3-piperidinecarboxamide], the IC50 was 100 to 1000 nM. On to `Cc1ccc(CNC(=O)[C@H]2CCCN(c3ccnc(Nc4ccc(C(C)C)cc4)n3)C2)cc1` [Example 172, (3S)-N-(4-methylbenzyl)-1-(2-((4-(1-methylethyl)phenyl)amino)-4-pyrimidinyl)-3-piperidinecarboxamide], for which the IC50 was 1000 to 5000 nM. As to `Cc1ccc(CNC(=O)[C@H]2CCCN(c3ccnc(Nc4ccc(C(N)=O)cc4)n3)C2)cc1` [Example 173, (3S)-1-(2-((4-carbamoylphenyl)amino)-4-pyrimidinyl)-N-(4-methylbenzyl)-3-piperidinecarboxamide], the IC50 lay within 1000 to 5000 nM. Take `Cc1ccc(CNC(=O)[C@H]2CCCN(c3ccnc(Nc4cc(Cl)cc(Cl)c4)n3)C2)cc1` [Example 174, (3S)-1-(2-((3,5-dichlorophenyl)amino)-4-pyrimidinyl)-N-(4-methylbenzyl)-3-piperidinecarboxamide]: the 50% inhibitory concentration (IC50) lay within 1000 to 5000 nM. For the molecule `Cc1ccc(CNC(=O)[C@H]2CCCN(c3ccnc(Nc4cccc(OCc5ccccc5)c4)n3)C2)cc1` [Example 175, (3S)-1-(2-((3-(benzyloxy)phenyl)amino)-4-pyrimidinyl)-N-(4-methylbenzyl)-3-piperidinecarboxamide], the IC50 was 1000 to 5000 nM. Regarding `Cc1ccc(CNC(=O)[C@H]2CCCN(c3ccnc(Nc4cccc(-c5nnn[nH]5)c4)n3)C2)cc1` [Example 176, (3S)-N-(4-methylbenzyl)-1-(2-((3-(1H-tetrazol-5-yl)phenyl)amino)-4-pyrimidinyl)-3-piperidinecarboxamide], the 50% inhibitory concentration (IC50) was 5000 to 10000 nM. In the case of `Cc1ccc(CNC(=O)[C@H]2CCCN(c3ccnc(Nc4cccc(-c5cnco5)c4)n3)C2)cc1` [Example 177, (3S)-N-(4-methylbenzyl)-1-(2-((3-(1,3-oxazol-5-yl)phenyl)amino)-4-pyrimidinyl)-3-piperidinecarboxamide], the IC50 lay within 100 to 1000 nM. For `CC(=O)Nc1cccc(Nc2nccc(N3CCC[C@H](C(=O)NCc4ccc(C)cc4)C3)n2)c1` [Example 178, (3S)-1-(2-((3-(acetylamino)phenyl)amino)-4-pyrimidinyl)-N-(4-methylbenzyl)-3-piperidinecarboxamide] the value was 100 to 1000 nM; for `Cc1ccc(CNC(=O)[C@H]2CCCN(c3ccnc(Nc4ccc(F)cc4)n3)C2)cc1` [Example 179, (3S)-1-(2-((4-fluorophenyl)amino)-4-pyrimidinyl)-N-(4-methylbenzyl)-3-piperidinecarboxamide], 1000 to 5000 nM; for `Cc1ccc(CNC(=O)[C@H]2CCCN(c3ccnc(Nc4ccc(C)cc4)n3)C2)cc1` [Example 180, (3S)-N-(4-methylbenzyl)-1-(2-((4-methylphenyl)amino)-4-pyrimidinyl)-3-piperidinecarboxamide], 1000 to 5000 nM. For `Cc1ccc(CNC(=O)[C@H]2CCCN(c3ccnc(Nc4cccc(C(C)(C)C)c4)n3)C2)cc1` [Example 181, (3S)-1-(2-((3-tert-butylphenyl)amino)-4-pyrimidinyl)-N-(4-methylbenzyl)-3-piperidinecarboxamide] the value was 100 to 1000 nM; for `Cc1ccc(CNC(=O)[C@H]2CCCN(c3ccnc(Nc4cccc(-c5ccccc5)c4)n3)C2)cc1` [Example 182, (3S)-1-(2-(3-biphenylylamino)-4-pyrimidinyl)-N-(4-methylbenzyl)-3-piperidinecarboxamide], 100 to 1000 nM; for `CC(=O)NCc1cccc(Nc2nccc(N3CCC[C@H](C(=O)NCc4ccc(C)cc4)C3)n2)c1` [Example 183, (3S)-1-(2-((3-((acetylamino)methyl)phenyl)amino)-4-pyrimidinyl)-N-(4-methylbenzyl)-3-piperidinecarboxamide], 100 to 1000 nM. Under `Cc1ccc(CNC(=O)[C@H]2CCCN(c3ccnc(Nc4cccc(CC(N)=O)c4)n3)C2)cc1` [Example 184, (3S)-1-(2-((3-(2-amino-2-oxoethyl)phenyl)amino)-4-pyrimidinyl)-N-(4-methylbenzyl)-3-piperidinecarboxamide] stands 100 to 1000 nM. For `Cc1ccc(CNC(=O)[C@H]2CCCN(c3ccnc(Nc4cccc(F)c4)n3)C2)cc1` [Example 185, (3S)-1-(2-((3-fluorophenyl)amino)-4-pyrimidinyl)-N-(4-methylbenzyl)-3-piperidinecarboxamide], the IC50 lay in the range of 1000 to 5000 nM. For `Cc1ccc(CNC(=O)[C@H]2CCCN(c3ccnc(Nc4ccc(C(=O)c5ccccc5)cc4)n3)C2)cc1` [Example 186, (S)-1-(2-(4-benzoylphenylamino)pyrimidin-4-yl)-N-(4-methylbenzyl)piperidine-3-carboxamide] the value was 5000 to 10000 nM. Take `CCN(CC)CCNC(=O)c1ccc(Nc2nccc(N3CCC[C@H](C(=O)NCc4ccc(C)cc4)C3)n2)cc1` [Example 187, (S)-1-(2-(4-(2-(diethylamino)ethylcarba-moyl)phenylamino)pyri-midin-4-yl)-N-(4-methylbenzyl)piperidine-3-carboxamide]: the IC50 is 100 to 1000 nM. For the molecule `Cc1ccc(CNC(=O)[C@H]2CCCN(c3ccnc(Nc4ccc(S(N)(=O)=O)cc4)n3)C2)cc1` [Example 188, (S)-N-(4-methylbenzyl)-1-(2-(4-sulfamoylphenylamino)pyrimidin-4-yl)piperidine-3-carboxamide], the IC50 fell in the range of 100 to 1000 nM. With `Cc1ccc(CNC(=O)[C@H]2CCCN(c3ccnc(Nc4ccc(-c5cnco5)cc4)n3)C2)cc1` [Example 189, (S)-N-(4-methylbenzyl)-1-(2-(4-(oxazol-5-yl)phenylamino)py-rimidin-4-yl)piperidine-3-carboxamide], the IC50 is 1000 to 5000 nM. Under `Cc1ccc(CNC(=O)[C@H]2CCCN(c3ccnc(Nc4cc(OC[C@H]5CCCN5C)cc(C(F)(F)F)c4)n3)C2)cc1` [Example 190, (S)-N-(4-methylbenzyl)-1-(2-(3-(((R)-1-methylpyrrolidin-2-yl)methoxy)-5-(trifluoromethyl)phenylamino)pyrimidin-4-yl)piperidine-3-carboxamide] stands 50 to 100 nM; under `Cc1ccc(CNC(=O)[C@H]2CCCN(c3ccnc(Nc4ccc(-n5cncn5)cc4)n3)C2)cc1` [Example 191, (S)-1-(2-(4-(1H-1,2,4-triazol-1-yl)phenylamino)pyrimidin-4-yl)-N-(4-methylbenzyl)piperidine-3-carboxamide], 1000 to 5000 nM. As to `CCOc1ccc(Nc2nccc(N3CCC[C@H](C(=O)NCc4ccc(C)cc4)C3)n2)cc1` [Example 192, (S)-1-(2-(4-ethoxyphenylamino)pyrimidin-4-yl)-N-(4-methylbenzyl)piperidine-3-carboxamide], the IC50 lay in the range of 1000 to 5000 nM. Turning to `Cc1ccc(CNC(=O)[C@H]2CCCN(c3ccnc(Nc4ccc(N5CCNC(=O)C5)nc4)n3)C2)cc1` [Example 193, (S)-N-(4-methylbenzyl)-1-(2-(6-(3-oxopiperazin-1-yl)pyridin-3-ylamino)pyrimidin-4-yl)piperidine-3-carboxamide], the 50% inhibitory concentration (IC50) lay within 1000 to 5000 nM.
